According to patent EP1964555A1, “PHARMACEUTICAL CO[…] INHIBIT THE REUPTAKE OF NORADRENALINE, DOPAMINE AND SEROTONIN, WHICH ARE COMBINED WITH AN AMINO ACID FOR THE TREATMENT OF OBESITY AND OVERWEIGHT” (Espinosa Abdala, Leopoldo de Jesús, priority 2005, dated 2007):

Assays:
[1] = cited from earlier work; for plasma rates: after administration of indicated Sibutramine therapeutic doses; for time for plasma concentrations to reach the stable state: during treatment; for detection in urine: in vivo; for maximum plasma concentration [Tmax]: time after administration; for effect of food on Tmax / effect of food on maximum concentrations: with food
human plasmatic proteins = settings: plasma; cited from earlier work
[2] = Example 2: randomized, double-blind, crossover study in patients with severe obesity and dyslipidemia; type: in vivo; settings: 4 weeks per treatment
Description: A randomized, double-blind and crossover study was made in order to assess the reliability and effectiveness of the combination Sibutramine-Carnitine in patients with obesity and/or overweight suffering from dyslipidemia. 80 individuals were included in the study with a BMI higher than 35 kg/m^2 diagnosed with severe obesity, with alteration in the profile of lipids which total cholesterol figures was higher than 200 mg/dl.
Combined Sibutramine-carnitine was administered for 4 weeks and subsequently sibutramine alone and carnitine alone for another 4 weeks.

[3] = single dose, within a 15-day period

Compound	plasma rates [1]	time for plasma concentrations to reach the stable state [1]	detection in urine [1]	maximum plasma concentration [Tmax] [1]	effect of food on Tmax [1]	effect of food on maximum concentrations [1]	attachment to human plasmatic proteins (human plasmatic proteins)	cholesterol and triglycerides levels ([2]; compared to the admission visit)	share expelled through urine [1, 3]	share of dose expelled through urine and feces [1, 3]	reduction of BMI ([2]; BMI higher than 35 kg/m^2, total cholesterol higher than 200 mg/dl, combination compared to sibutramine alone)
CNC(CC(C)C)C1(c2ccc(Cl)cc2)CCC1 (stereo not shown) [M1, mono-desmetilsibutramina]	6%	four	not detected	~3 h	delay	decreases	94%				
CC(C)CC(N)C1(c2ccc(Cl)cc2)CCC1 (stereo not shown) [M2, di-desmetil-sibutramina]	12%	four	not detected	~4 h	delay	decreases	94%				
CC(C)CC(N(C)C)C1(c2ccc(Cl)cc2)CCC1 (stereo not shown) [Sibutramine]	3%		not detected	1.2 h			97%	frank progressive reduction	77%	About 85%	
C[N+](C)(C)CC(O)CC(=O)[O-] (stereo not shown) [carnitine, Carnitine]											no significant differences
